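Test compounds were applied to cells in 96-well plates for 48 hours at 5 doses. Abbreviation: GI50, concentration required for 50% inhibition of growth.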 Active and inactive are the calls of the source. No stated cut-off is given here; in the data, active = GI50 up to about 1.1 µM and inactive = higher.
Key:
Assay in all cases: inhibition of tumour cell growth, NCI panel, 48 h
CCRF-CEM = test system: CCRF-CEM
HCC 2998 = test system: HCC 2998
HT-29 = test system: HT-29
K562 = test system: K562
M14 = test system: M14
MCF7 = test system: MCF7
MDA-MB-435 = test system: MDA-MB-435
Malme-3M = test system: Malme-3M
NCI-H23 = test system: NCI-H23
NCI-H460 = test system: NCI-H460
OVCAR-8 = test system: OVCAR-8
PC-3 = test system: PC-3
RXF 393 = test system: RXF 393
SF-295 = test system: SF-295
SK-OV-3 = test system: SK-OV-3
SN12C = test system: SN12C
SR = test system: SR
TK-10 = test system: TK-10
UACC-257 = test system: UACC-257
HL-60 = test system: HL-60

SMILES | GI50 (CCRF-CEM) | GI50 (HCC 2998) | GI50 (HT-29) | GI50 (K562) | GI50 (M14) | GI50 (MCF7) | GI50 (MDA-MB-435) | GI50 (Malme-3M) | GI50 (NCI-H23) | GI50 (NCI-H460) | GI50 (OVCAR-8) | GI50 (PC-3) | GI50 (RXF 393) | GI50 (SF-295) | GI50 (SK-OV-3) | GI50 (SN12C) | GI50 (SR) | GI50 (TK-10) | GI50 (UACC-257) | GI50 (HL-60)
CC(C)(N)CO[C@H]1C[C@H]2CC[C@@]1(C)C2(C)C | 25.2 µM (inactive) | 2.11 µM (inactive) | 12.4 µM (inactive) | 18.2 µM (inactive) | 16 µM (inactive) | 19.4 µM (inactive) | 16.3 µM (inactive) | 18.2 µM (inactive) | 23.7 µM (inactive) | 17.9 µM (inactive) | 20.6 µM (inactive) | 27.1 µM (inactive) | 12.9 µM (inactive) | 19.9 µM (inactive) | 27.8 µM (inactive) | 39.9 µM (inactive) | 11.9 µM (inactive) | 20 µM (inactive) | 17.8 µM (inactive) | –
CC(C)(C)N/N=C(\C(=O)Nc1ccc([N+](=O)[O-])cc1[N+](=O)[O-])c1nc2ccc([N+](=O)[O-])cc2nc1O | 98.9 µM (inactive) | 37.1 µM (inactive) | > 100 µM (inactive) | 37 µM (inactive) | > 100 µM (inactive) | 79.6 µM (inactive) | > 100 µM (inactive) | > 100 µM (inactive) | 86.1 µM (inactive) | 31.8 µM (inactive) | 48.5 µM (inactive) | 96.4 µM (inactive) | > 100 µM (inactive) | 31.5 µM (inactive) | > 100 µM (inactive) | > 100 µM (inactive) | 31.3 µM (inactive) | – | > 100 µM (inactive) | 47.3 µM (inactive)
COC1=CC(=O)C2=C(C1=O)[C@H]1CC[C@]3(C)C(=O)CC[C@H]3[C@@H]1CC2 | 3.62 µM (inactive) | 54.1 µM (inactive) | 26.3 µM (inactive) | 33.6 µM (inactive) | 30.4 µM (inactive) | 19 µM (inactive) | 19.8 µM (inactive) | – | 27.1 µM (inactive) | > 100 µM (inactive) | 18.1 µM (inactive) | 28.5 µM (inactive) | 28.1 µM (inactive) | 66.7 µM (inactive) | > 100 µM (inactive) | 21.4 µM (inactive) | 34.9 µM (inactive) | > 100 µM (inactive) | 22.9 µM (inactive) | 2.38 µM (inactive)
COc1ccc(SC(C)(SC)c2ccccn2)c(OC)n1 (configuration not stated) | – | > 100 µM (inactive) | 42.7 µM (inactive) | 51.4 µM (inactive) | > 100 µM (inactive) | 60.1 µM (inactive) | > 100 µM (inactive) | 71.1 µM (inactive) | 35.4 µM (inactive) | 73.1 µM (inactive) | 75.7 µM (inactive) | 76.2 µM (inactive) | > 100 µM (inactive) | 49.2 µM (inactive) | – | > 100 µM (inactive) | 47.2 µM (inactive) | > 100 µM (inactive) | 67.3 µM (inactive) | 3.24 µM (inactive)
COc1ccccc1C(=O)NO | > 100 µM (inactive) | > 100 µM (inactive) | > 100 µM (inactive) | > 100 µM (inactive) | > 100 µM (inactive) | > 100 µM (inactive) | > 100 µM (inactive) | – | > 100 µM (inactive) | 62.7 µM (inactive) | > 100 µM (inactive) | > 100 µM (inactive) | > 100 µM (inactive) | > 100 µM (inactive) | > 100 µM (inactive) | > 100 µM (inactive) | > 100 µM (inactive) | > 100 µM (inactive) | > 100 µM (inactive) | > 100 µM (inactive)
O=C(O)/C=C/C=C/c1ccc2c(c1)OCO2 [PIPERIC ACID] | – | – | > 100 µM (inactive) | > 100 µM (inactive) | > 100 µM (inactive) | > 100 µM (inactive) | > 100 µM (inactive) | > 100 µM (inactive) | > 100 µM (inactive) | > 100 µM (inactive) | > 100 µM (inactive) | > 100 µM (inactive) | > 100 µM (inactive) | > 100 µM (inactive) | > 100 µM (inactive) | > 100 µM (inactive) | > 100 µM (inactive) | > 100 µM (inactive) | > 100 µM (inactive) | > 100 µM (inactive)
C=C1C(=O)OC2CCN3CC=C(COC(=O)C(C)(O)C4(CO4)C1C)C23 (configuration not stated) | > 100 µM (inactive) | > 100 µM (inactive) | > 100 µM (inactive) | > 100 µM (inactive) | > 100 µM (inactive) | > 100 µM (inactive) | > 100 µM (inactive) | > 100 µM (inactive) | > 100 µM (inactive) | > 100 µM (inactive) | > 100 µM (inactive) | > 100 µM (inactive) | > 100 µM (inactive) | > 100 µM (inactive) | > 100 µM (inactive) | > 100 µM (inactive) | > 100 µM (inactive) | > 100 µM (inactive) | > 100 µM (inactive) | –
CC1=NN(c2nc(N)nc(/C(C#N)=C\c3csc([N+](=O)[O-])c3)n2)C(C)(C)C1 | 2.23 µM (inactive) | 31.7 µM (inactive) | 37.3 µM (inactive) | 39.4 µM (inactive) | > 100 µM (inactive) | 35.6 µM (inactive) | 39.7 µM (inactive) | – | 32.1 µM (inactive) | 32.7 µM (inactive) | 25.1 µM (inactive) | 20.6 µM (inactive) | 20.6 µM (inactive) | 45.5 µM (inactive) | 42.2 µM (inactive) | – | 51.1 µM (inactive) | 34.2 µM (inactive) | 45.7 µM (inactive) | 5.22 µM (inactive)
O=c1[nH]c(=O)n(C2CC(O)C(COP(=O)(O)OC3CC(n4cc(F)c(=O)[nH]c4=O)OC3COP(=O)(O)OC3CC(n4cc(F)c(=O)[nH]c4=O)OC3COP(=O)(O)OC3CC(n4cc(F)c(=O)[nH]c4=O)OC3COP(=O)(O)OC3CC(n4cc(F)c(=O)[nH]c4=O)OC3COP(=O)(O)OC3CC(n4cc(F)c(=O)[nH]c4=O)OC3COP(=O)(O)OC3CC(n4cc(F)c(=O)[nH]c4=O)OC3COP(=O)(O)OC3CC(n4cc(F)c(=O)[nH]c4=O)OC3COP(=O)(O)OC3CC(n4cc(F)c(=O)[nH]c4=O)OC3COP(=O)(O)OC3CC(n4cc(F)c(=O)[nH]c4=O)OC3CO)O2)cc1F (configuration not stated) | – | 0.0234 µM (active) | 0.481 µM (active) | 2.36 µM (inactive) | < 0.005 µM (active) | < 0.005 µM (active) | 0.422 µM (active) | – | 0.0502 µM (active) | < 0.005 µM (active) | < 0.005 µM (active) | 0.0767 µM (active) | 0.217 µM (active) | < 0.005 µM (active) | 0.226 µM (active) | 0.00828 µM (active) | < 0.005 µM (active) | 0.493 µM (active) | 0.578 µM (active) | 0.0126 µM (active)
O=C(NCCC1CNc2ccccc21)OCc1ccccc1 (configuration not stated) | 87.7 µM (inactive) | > 100 µM (inactive) | > 100 µM (inactive) | > 100 µM (inactive) | > 100 µM (inactive) | > 100 µM (inactive) | > 100 µM (inactive) | > 100 µM (inactive) | > 100 µM (inactive) | > 100 µM (inactive) | > 100 µM (inactive) | > 100 µM (inactive) | > 100 µM (inactive) | > 100 µM (inactive) | > 100 µM (inactive) | – | > 100 µM (inactive) | – | > 100 µM (inactive) | –
CC(C)(C)c1ccccc1N1C(=O)c2ccc3c4c(ccc(c24)C1=O)N(c1ccccc1C(C)(C)C)C3=O | > 100 µM (inactive) | > 100 µM (inactive) | > 100 µM (inactive) | > 100 µM (inactive) | > 100 µM (inactive) | > 100 µM (inactive) | > 100 µM (inactive) | – | > 100 µM (inactive) | > 100 µM (inactive) | > 100 µM (inactive) | 20 µM (inactive) | > 100 µM (inactive) | 71.3 µM (inactive) | > 100 µM (inactive) | > 100 µM (inactive) | > 100 µM (inactive) | – | > 100 µM (inactive) | –
Cc1c(-c2ccccc2)oc(=O)c2ccccc12 | 18.4 µM (inactive) | 18.2 µM (inactive) | 15.5 µM (inactive) | 30.2 µM (inactive) | 22.5 µM (inactive) | 20.4 µM (inactive) | 15.6 µM (inactive) | 21.7 µM (inactive) | 24.8 µM (inactive) | 26.4 µM (inactive) | 27.1 µM (inactive) | 24.4 µM (inactive) | 16.5 µM (inactive) | 18.3 µM (inactive) | 22.8 µM (inactive) | 17.7 µM (inactive) | 10.3 µM (inactive) | 23.6 µM (inactive) | 15.5 µM (inactive) | –
COc1ccc(N(C(=O)Nc2ccc(Cl)c(Cl)c2)C2c3cccn3C(=O)N2c2ccc(Cl)c(Cl)c2)cc1 (configuration not stated) | 36 µM (inactive) | 56.5 µM (inactive) | > 100 µM (inactive) | 13.8 µM (inactive) | 19.1 µM (inactive) | 43.3 µM (inactive) | 28.6 µM (inactive) | > 100 µM (inactive) | 92 µM (inactive) | 24.9 µM (inactive) | > 100 µM (inactive) | 60.4 µM (inactive) | > 100 µM (inactive) | 18.3 µM (inactive) | – | > 100 µM (inactive) | 12.4 µM (inactive) | > 100 µM (inactive) | > 100 µM (inactive) | 25.1 µM (inactive)
O=[N+]([O-])c1ccc2c3c1[C@H]1O[C@H]1c1cccc(c1-3)[C@@H]1O[C@H]21 | 1.44 µM (inactive) | – | 2.01 µM (inactive) | 0.526 µM (active) | 1.71 µM (inactive) | 2.11 µM (inactive) | 1.85 µM (inactive) | 2.4 µM (inactive) | 1.81 µM (inactive) | – | 0.91 µM (active) | 2.3 µM (inactive) | 1.78 µM (inactive) | 3.5 µM (inactive) | 4.22 µM (inactive) | 2.12 µM (inactive) | 2.72 µM (inactive) | 2.96 µM (inactive) | 1.82 µM (inactive) | 3.15 µM (inactive)

From ChEMBL document CHEMBL1201862, “PubChem BioAssay data set” (2004)
